Data on 2 molecules can be found in article PMC10149214 (The Journal of Biological Chemistry, 2023).

The target of data set [1] is CRAF^SSDD (Homo sapiens, UniProt P04049, Y340D/Y341D). As to the kind of experiment: TR-FRET kinase inhibition assay (MEK1 activation loop phosphorylation), CRAF^SSDD dimer.
The target in data set [2] is CRAF^WT (Homo sapiens, UniProt P04049). In words: TR-FRET kinase inhibition assay (MEK1 activation loop phosphorylation), CRAF^WT dimer. (In TR-FRET formats the signal depends on donor and acceptor labels being close together.)
Data set [3] deals with BRAF^V600E (Homo sapiens, UniProt P15056, V600E). As to the kind of experiment: TR-FRET kinase inhibition assay (MEK1 activation loop phosphorylation), BRAF^V600E monomer.
Data set [4] deals with CRAF. More on the design: method as in PMID 33355204. The note with it: purified CRAF; reaction conditions not provided; cited from earlier work.
For data set [5], the target named is T1, ARAF^SSDD (Homo sapiens, UniProt P10398, G300S/Y301D/Y302D).
T1 sequence (P10398 274-606 G300S/Y301D/Y302D): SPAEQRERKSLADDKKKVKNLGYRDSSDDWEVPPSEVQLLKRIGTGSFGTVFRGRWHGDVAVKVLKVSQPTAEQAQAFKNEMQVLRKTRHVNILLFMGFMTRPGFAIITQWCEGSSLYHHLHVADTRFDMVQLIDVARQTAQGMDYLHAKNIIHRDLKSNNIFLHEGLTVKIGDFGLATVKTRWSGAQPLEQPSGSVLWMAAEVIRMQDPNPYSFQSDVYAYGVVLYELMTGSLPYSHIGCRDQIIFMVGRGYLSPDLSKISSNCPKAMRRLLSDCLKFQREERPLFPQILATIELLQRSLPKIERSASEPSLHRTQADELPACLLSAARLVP
As to the kind of experiment: TR-FRET kinase inhibition assay (MEK1 activation loop phosphorylation), ARAF^SSDD dimer. The note with it: for Hill slope: four-parameter fit, ARAF^SSDD 10 nM, ATP 200 μM.

For data set [6], the target named is BRAF^WT (Homo sapiens, UniProt P15056). As to the kind of experiment: TR-FRET kinase inhibition assay (MEK1 activation loop phosphorylation), BRAF^WT dimer.
On the set-up of data set [7]: method as in PMID 28082416, PMID 25792358. As to conditions: cited from earlier work.

Molecules are shown by their SMILES. “And” between values parts separate entries of the source, which are not always exact repeats. Equal entries are not always repeated.

As a reminder, the IC50 is the concentration that gives 50% inhibition. One may read the Ki as the equilibrium dissociation constant of an inhibitor or competing ligand from its target. As a reminder, the Hill slope is the slope factor of the fitted curve.

Regarding `Cc1ccc(NC(=O)c2ccnc(C(F)(F)F)c2)cc1-c1cc(OCCO)nc(N2CCOCC2)c1` [Naporafenib, N-(3-(2-(2-Hydroxyethoxy)-6-morpholinopyridin-4-yl)-4-methylphenyl)-2-(trifluoromethyl)isonicotinamide], the IC50 in data set [1] was 3.64 ± 0.36 nM; in data set [2] (IC50, CRAF^WT 4 nM, ATP 200 μM, WT MEK1 substrate 250 nM, mean ± SD), 3.7 nM and 3.66 nM; in data set [3] it was 49.2 ± 3 nM; in data set [4] it was 0.07 nM; in data set [5] it was 414 ± 186 nM; in data set [6], 13.4 ± 0.3 nM. The Ki stood at 0.01 ± 0.001 nM in data set [1]; 0.04 ± 0.03 nM in data set [2]; 2.04 ± 0.83 nM in data set [3]; 5.71 ± 2.97 nM in data set [5]; 0.13 ± 0.08 nM in data set [6]. For the same molecule, the Hill slope is given as −3.03 ± 0.73 in data set [1] (four-parameter fit, CRAF^SSDD 1 nM, ATP 200 μM); −2.57 ± 0.65 in data set [2] (four-parameter fit, CRAF^WT 4 nM, ATP 200 μM); −0.96 ± 0.09 in data set [3] (four-parameter fit, BRAF^V600E 1 nM, ATP 200 μM); −0.78 ± 0.05 in data set [5]; −2.73 ± 0.23 in data set [6] (four-parameter fit, BRAF^WT 1 nM, ATP 200 μM).

As to `C[C@@H](NC(=O)c1ncnc(N)c1Cl)c1ncc(C(=O)Nc2cc(C(F)(F)F)c(Cl)cn2)s1` [Tovorafenib], the Brain penetration entry in data set [7] is given as “brain-penetrant”. For the same molecule, in data set [5], the IC50 was > 3000 nM, the inhibitory constant (Ki) was > 40 nM and the Hill slope is reported as −1.12 ± 0.42. For the same molecule, the “Inhibition of ARAF^SSDD at highest inhibitor concentration” value in data set [5] (10 μM, the highest inhibitor concentration achievable in this assay) is recorded as “did not completely inhibit”.
